Measured values: patent US20250339547A1, “MET BCL-XL INHIBITOR ANTIBODY-DRUG CONJUGATES AND METHODS OF USE THEREOF” (Novartis AG, priority 2022, published 2025)

Assays:
[1] = system: H1650 cells; test: In vitro activity in H1650 cell line (3D, CTG 120h), Example 6; format: cell-based; conditions: Homo sapiens, NCI-H1650, 120 h, H1650 3D
Method: H1650 cells were cultivated in RPMI supplemented with 10% heat inactivated fetal bovine serum, penicillin (100 IU/ml), streptomycin (100 μg/ml) and L-glutamine (2 mM). Cells were cultured at 37° C. in a humidified atmosphere containing 5% CO2. Cells were seeded in 96 microwell round bottom plates (96 microwell low attachment plates, Costar reference 7007; 75 μL/well of 125000 cells/mL) and exposed to the mAbs or ADCs for 120h (serially diluted; 9 concentrations each, duplicates). Effects of mAbs or ADCs on cell viability were assessed after 5 days of incubation at 37° C./5% CO2 by quantification of cellular ATP levels using CellTiterGlo at 75 μL reagent/well. All the conditions were tested in duplicates. Luminescence was quantified on a multipurpose plate reader. IC50s were calculated using standard four-parametric curve fitting. IC50 is defined as the compound concentration at which the CTG signal is reduced to 50% of that measured for the control. Two independent experiments were performed (N1 and N2). IC50 data of each experiment and the arithmetic mean is shown in Table 14 for all the antibodies and ADCs tested. NT=not tested; ND=not determined.

[2] = system: HCC78 lung cancer cell line; test: HCC78 viability, single agents or 1:1 combination with paclitaxel (CTG 120h), Example 13; format: cell-based; conditions: Homo sapiens, HCC78, 120 h
Method: HCC78 lung cancer cell line was cultured in the media described above at 37° C. in a humidified atmosphere containing 5% CO2. […] When in 1:1 combination, both paclitaxel and the mAb or ADC were serially diluted (9 concentrations each, triplicates). Effect on cell viability was assessed after 5 days of incubation at 37° C./5% CO2 by quantification of cellular ATP levels using CellTiter-Glo reagent (Promega Ref: G7571) at 75 μL reagent/well. All the conditions were tested in triplicates. Luminescence was quantified on a multipurpose plate reader. IC50s were calculated using standard four-parametric curve fitting. […] Two independent experiments were performed (N1 and N2).

Cc1c(Nc2nc3ccccc3s2)nnc2c1CCCN2c1ccc(-c2cnn(C[C@]34C[C@]5(C)C[C@](C)(C3)C[C@@](OCCNCCCO)(C5)C4)c2C)c(C(=O)O)n1 [P25, 6-[3-(1,3-benzothiazol-2-ylamino)-4-methyl-6,7-dihydro-5H-pyrido[2,3-c]pyridazin-8-yl]-3-[1-[[3-[2-(3-hydroxypropylamino)ethoxy]-5,7-dimethyl-1-adamantyl]methyl]-5-methyl-pyrazol-4-yl]pyridine-2-carboxylic acid]
IC50 ([1]; mean): 1.57 nM
IC50 ([1]; n = 1): 1.47 nM
IC50 ([1]; n = 2): 1.66 nM

CC(=O)O[C@H]1C(=O)[C@@]2(C)[C@H]([C@H](OC(=O)c3ccccc3)[C@]3(O)C[C@H](OC(=O)[C@H](O)[C@@H](NC(=O)c4ccccc4)c4ccccc4)C(C)=C1C3(C)C)[C@]1(OC(C)=O)CO[C@@H]1C[C@@H]2O [Paclitaxel, paclitaxel]
IC50 ([2]; Mean): 6.44 nM
IC50 ([2]; N1): 6.04 nM
IC50 ([2]; N2): 6.84 nM
